Experimental data published in patent publication US20260226068A1, “IMIDAZOTRIAZINE IL-17A MODULATORS AND USES THEREOF” (DICE ALPHA, INC., priority 2023, published 2026).

Experiments:
IL-17A/F = molecular target: T1, IL-17A/F (Homo sapiens, UniProt Q16552+Q96PD4); experiment: IL-17A/F HEK-Blue cell assay (SEAP reporter); format: cell-based; conditions: HEK-Blue IL-17A reporter cells, IL17A/F 5 ng/mL, 20 hours, SEAP read at A630; read-out: HEK-Blue IL17AF (IC50 for IL-17A/F inhibition)
T1 construct: purchased R&D Systems
T1 sequence (Q16552 24-155): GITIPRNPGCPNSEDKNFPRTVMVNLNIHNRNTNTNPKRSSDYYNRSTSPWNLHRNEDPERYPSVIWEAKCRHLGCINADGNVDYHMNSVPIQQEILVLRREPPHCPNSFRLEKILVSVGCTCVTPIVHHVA
T1 sequence (Q96PD4 31-163): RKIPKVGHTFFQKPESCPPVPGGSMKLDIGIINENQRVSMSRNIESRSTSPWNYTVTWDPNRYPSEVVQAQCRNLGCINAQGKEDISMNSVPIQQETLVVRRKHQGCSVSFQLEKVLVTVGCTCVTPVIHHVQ

IL-17A/A = molecular target: T2, IL-17A/A (Homo sapiens, UniProt Q16552); experiment: IL-17A/A HEK-Blue cell assay (SEAP reporter); format: cell-based; conditions: HEK-Blue IL-17A reporter cells, IL17A/A 5 ng/mL, 20 hours, SEAP read at A630; read-out: HEK-Blue IL17AA (IC50 for IL-17A/A inhibition)
T2 construct: purchased Genscript Z03228
T2 sequence (Q16552 24-155): T1 sequence (Q16552 24-155)

[1] = Mouse oral bioavailability; format: in vivo; conditions: C57BL/6J mice, PO 10 mg/kg vs IV 1 mg/kg, plasma AUC, read-out: % F (Mouse), oral bioavailability
Protocol: The test compound is administered to C57BL/6J mice intravenously (IV) at 1 mg/kg or orally (PO) at 10 mg/kg using vehicles composed of 10% DMA, 70% Polyethylene glycol 400, and 20% purified water; or 10% DMA, 50% Polyethylene glycol 400, and 40% purified water. Serial blood collections occur at 0.08, 0.25, 0.5, 1, 2, 4, 8 and 24 h post IV bolus dose administration, and 0.25, 0.5, 1, 2, 4, 8 and 24 h post oral dose administration. Blood samples are treated with EDTA anticoagulant. Plasma is isolated by centrifugation and stored at −70° C. until analysis by LC-MS/MS. Test article concentration is determined in plasma and uploaded into the Phoenix WinNonlin system where noncompartmental analysis is used to calculate Area Under the Curve (AUC) for both IV and PO arms. Bioavailability (% F) is calculated via the following equation,
% F=(AUCPO×DoseIV)/(AUCIV×DosePO)×100

For `Cc1nonc1C(=O)N[C@H](c1cn2nc(C[C@H]3C[C@@H](C(F)(F)F)CNC3=O)c(C3CCOCC3)nc2n1)C1CCC(F)(F)CC1` [Compound 148, N-((1S)-(4,4-difluorocyclohexyl)(2-(((3R,5R)-2-oxo-5-(trifluoromethyl)piperidin-3-yl)methyl)-3-(tetrahydro-2H-pyran-4-yl)imidazo[1,2-b][1,2,4]triazin-6-yl)methyl)-4-methyl-1,2,5-oxadiazole-3-carboxamide], the IC50 (IL-17A/F) was greater than 1000 nM, the IC50 (IL-17A/A) was less than 100 nM and the bioavailability [1] was 91%.

`CCn1nccc1C(=O)N[C@H](c1cn2nc(C[C@H]3C[C@@H](C(F)(F)F)CNC3=O)c(C3CC4CCC(C3)O4)nc2n1)C1CCC(F)(F)CC1` (stereo partly drawn) [Compound 153, N-((1S)-(3-(8-oxabicyclo[3.2.1]octan-3-yl)-2-(((3R,5R)-2-oxo-5-(trifluoromethyl)piperidin-3-yl)methyl)imidazo[1,2-b][1,2,4]triazin-6-yl)(4,4-difluorocyclohexyl)methyl)-1-ethyl-1H-pyrazole-5-carboxamide] gave an IC50 (IL-17A/F) of 100 to 1000 nM, an IC50 (IL-17A/A) of less than 100 nM and a bioavailability [1] of 43%.

Compound `CC(C)n1ncnc1C(=O)N[C@H](c1cn2nc(C[C@H]3C[C@@H](C(F)(F)F)CNC3=O)c(C3CCOCC3)nc2n1)C1CCC(F)(F)CC1` [Compound 229] has an IC50 (IL-17A/F) greater than 1000 nM, an IC50 (IL-17A/A) of less than 100 nM and a bioavailability [1] of 83%.
